Tests used:
estrone sulfatase = target: T1, estrone sulfatase (Rattus norvegicus, UniProt P15589); assay: Rat liver microsome sulfatase assay (Lineweaver-Burk); assay type: biochemical; settings: rat liver microsomes
T1 construct: using rat liver microcosm as a source of sulfatase; from tissue; host or cells: rat liver microsomal fraction (juvenile female Sprague-Dawley rats)
T1 sequence (P15589 20-577): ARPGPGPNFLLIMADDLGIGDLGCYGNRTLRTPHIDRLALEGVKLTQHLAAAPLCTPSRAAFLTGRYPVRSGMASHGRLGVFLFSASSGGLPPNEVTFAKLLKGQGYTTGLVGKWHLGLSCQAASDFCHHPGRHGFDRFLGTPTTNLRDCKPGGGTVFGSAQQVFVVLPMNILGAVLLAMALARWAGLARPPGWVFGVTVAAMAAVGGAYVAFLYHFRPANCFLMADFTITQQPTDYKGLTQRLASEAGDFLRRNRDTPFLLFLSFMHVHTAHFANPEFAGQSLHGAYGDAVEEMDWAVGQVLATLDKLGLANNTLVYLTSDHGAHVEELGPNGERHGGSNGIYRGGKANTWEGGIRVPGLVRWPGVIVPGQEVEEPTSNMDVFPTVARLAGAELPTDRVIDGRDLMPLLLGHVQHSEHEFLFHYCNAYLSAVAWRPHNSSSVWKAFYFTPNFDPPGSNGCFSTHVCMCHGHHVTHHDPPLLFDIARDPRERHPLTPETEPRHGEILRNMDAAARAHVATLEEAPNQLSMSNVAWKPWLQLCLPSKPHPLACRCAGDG
Protocol: Livers, obtained from juvenile female Sprague-Dawley rats, were minced with scissors in ice-cold 0.25M Tris-sucrose buffer (1:2 w:v) and homogenized with a Tissue Tearor using three 30 sec bursts. The nuclear fraction was pelleted by centrifugation at 1500×g for 15 min at 4° C. The supernatant was decanted and centrifuged at 10,000×g for 30 min at 4° C. to pellet the mitochondrial fraction. The resulting supernatant was removed and centrifuged at 100,000×g to yield the microsomal fraction. The microsomal pellet was resuspended in 50 mM Tris-HCl buffer (1:5 w:v) and protein from the microsomal suspension was determined by using the BCA assay.
^3H-estrone sulfate (53 Ci/mmol) was diluted in 50 mM Tris-HCl buffer and 50 μl (140,000 dpm) of the solution were added to all assay tubes. Radioinert estrone sulfate was dissolved in ethanol and then diluted into 50 mM Tris-HCl buffer. To achieve final concentrations of estrone sulfate, 100 μl of desired concentrations were added to the assay tubes. Compounds prepared according to Example 1 were dissolved in ethanol and then diluted in 50 mM Tris-HCl buffer. […] Product formation for samples containing an inhibitor was compared to that of the control samples, and data for Km and Ki were assessed through Michaelis Menten and Lineweaver-Burk calculations.

[1] = target: T2, estrone sulfatase in MDA-MB-231 breast cancer cells (Homo sapiens, UniProt P08842); assay: Intact breast cancer cell estrone sulfatase assay; assay type: cell-based; settings: intact MDA-MB-231 cells, 18 h incubation
T2 construct: using intact monolayers of MDA-MB-231 breast cancer cells; endogenous in cells; host or cells: MDA-MB-231 breast cancer cells
T2 sequence (P08842 22-583): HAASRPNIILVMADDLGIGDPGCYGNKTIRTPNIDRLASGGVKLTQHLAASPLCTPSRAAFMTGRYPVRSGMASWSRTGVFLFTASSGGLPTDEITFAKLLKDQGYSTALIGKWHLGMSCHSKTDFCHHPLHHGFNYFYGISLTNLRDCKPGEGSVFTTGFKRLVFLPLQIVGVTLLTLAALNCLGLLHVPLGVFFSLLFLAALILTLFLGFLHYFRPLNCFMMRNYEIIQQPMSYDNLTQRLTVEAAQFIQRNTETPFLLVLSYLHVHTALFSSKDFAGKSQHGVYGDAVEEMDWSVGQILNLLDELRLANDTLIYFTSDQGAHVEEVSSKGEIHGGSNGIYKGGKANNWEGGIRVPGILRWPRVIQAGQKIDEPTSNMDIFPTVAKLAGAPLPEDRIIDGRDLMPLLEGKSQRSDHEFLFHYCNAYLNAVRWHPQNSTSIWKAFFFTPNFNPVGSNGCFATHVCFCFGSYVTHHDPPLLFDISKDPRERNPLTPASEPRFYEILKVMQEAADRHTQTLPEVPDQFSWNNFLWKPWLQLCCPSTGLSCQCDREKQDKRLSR
Protocol: The ability of the compound prepared according to Example 1 to block hydrolysis of estrone sulfate was examined using intact monolayers of MDA-MB-231 breast cancer cells.
MDA-MB-231 cells were plated into 6-well dishes at approximately 1×10^6 cells/well in growth medium and incubated at 37° C. overnight to facilitate adherence to the plates. The growth medium contained 0.2% (v/v) sodium bicarbonate, 5% heat-inactivated fetal-calf serum, […] gentamicin, and 1% (v/v) antibiotic/antimycotic. Following incubation, growth medium was removed and replaced with growth medium containing ^3H-estrone sulfate (100,000 dpm/ml), with or without the compound of Example 1 (10 μM). Cells were incubated for 18 h, then plates were cooled for 15 min. Medium from each well (500 μL) was aliquoted into 16×100 mm tubes. Three mls of toluene were added to each tube for extraction of unconjugated steroids. The tubes were vortexed for 1 min and then centrifuged at 2500×g for 5 min to separate the aqueous and organic phases. One mL of the organic phase (containing radiolabeled unconjugated steroids) was transferred to scintillation vials and 5 ml scintillation cocktail was added. Total radioactivity was counted using a Packard Tri-carb scintillation counter at 50% efficiency for ^3H. All extractions were performed in duplicate and all treatments were run in triplicate. […]

SMILES: CC/C(=C(/c1ccc(OCCN(C)C)cc1)c1ccc(OS(N)(=O)=O)cc1)c1ccccc1 [tamoxifen sulfamate, (Z)-4-Hydroxytamoxifen Sulfamate]
- Ki (estrone sulfatase; double reciprocal plot, fixed inhibitor concentration 10 μM): ~17 µM
- type of inhibition (estrone sulfatase; maximum velocity unchanged, Km increased): competitive inhibitor
- inhibition at 10 µM [1]: ~50%

— patent publication US6716880B2, “Compounds for the treatment of estrogen-dependent illnesses and methods for making and using the same” (Duquesne University of the Holy Ghost, priority 1998, dated 2004)
